# Measured values from patent publication US11365208B2, “Silylated derivatives of resveratrol and the use thereof in neurodegenerative, neurological or inflammatory diseases” (Consejo Superior De Investigaciones Cientificas, priority 2016, dated 2022).
# Assays:
# RAW 264.7 macrophages = test: Inflammation assay: RAW macrophage viability after LPS (MTT); format: cell-based; details: 10 μM, LPS 100 ng/ml, 24 h, 1% DMSO
# Experimental: RAW 264.7 macrophages were cultured in P75 with high-glucose DMEM supplemented with penicillin/streptomycin and 10% inactivated fetal bovine serum.
# The cell viability assays with RAW macrophages were prepared in 96-well plates by seeding 25,000 cells/well in a volume of 100 μL and incubating the cells for 4 h before the addition of the compounds. The compounds to be tested were dissolved in DMSO and added in three different concentrations (1, 10, and 100 μM) in order to determine their toxicity. The final percentage of DMSO in each well was adjusted to 1%. The cell viability was evaluated 24 h after the addition of the compounds by means of the MTT assay according to the manufacturer's method. Mean values and standard deviations were calculated from at least eight different measurements from several independent experiments.
# For the testing of mitigation of damage caused by the addition of LPS, the RAW 264.7 macrophages were cultured according to the procedure described above. […] The cell viability was evaluated 24 h after the addition of the compounds by means of the MTT assay according to the manufacturer's method. Mean values and standard deviations were calculated from at least eight different measurements from several independent experiments.
# IL-6 = IL-6 in supernatant of LPS-stimulated RAW macrophages (ELISA); format: cell-based; details: 10 μM, 24 h
# Experimental: (§1) To determine the production of cytokines, 5×10^5 RAW 264.7 macrophages were seeded in 24-well plates (0.5 ml per well). The compounds to be tested were then added (10 μM), and the macrophages were either stimulated or not through the addition of LPS (1 μg/ml) to the culture medium. After 24 hours, the levels of IL-6 and TNF-α were measured in the supernatants by ELISA using the capture and biotinylated antibodies from BD PharMingen and PrepoTech following known protocols. The levels of NO in the supernatants at 24 hours were measured indirectly by determining the nitrite concentration in the medium using the Griess reagent according to established protocol. A minimum of two independent experiments and three replicates per experiment were performed for each measured value. The values are expressed as the mean±standard deviation.
# (§2) In the previous assay, the levels of various inflammation parameters were measured (TNF-α, NO, and IL-6) by ELISA after treatment with RES or with some of the compounds of the invention (2, 3, 5, 6, 8, and 9).
# [1] = system: mouse model of Huntington's disease; test: 3-nitro-propionic acid (3NP) mouse model of Huntington's disease; format: in vivo; details: 3NP mice
# Experimental: Compound 15 was investigated as a possible treatment in a mouse model of Huntington's disease. The compound resveratrol (RES) was added as a reference.
# In this model, increasing amounts of 3-nitro-propionic acid (3NP) are injected into the mice, causing lesions with a phenotype very similar to that of Huntington's disease, both mechanically and pathologically. Once the damage was caused, the mice were treated with RES, compound 15, or vehicle, and we studied the effect thereof on the mouse on the basis of different parameters. Behavioral studies (rotarod test), an assessment was made of motor capacity (tabulated on a scale of 0 normal to 4 incapable, in several parameters such as general mouse dystonia, ability to flip over, and the ability to explore), weight was monitored, and subsequent measurements were taken such as of the inhibition of pro-inflammatory cytokines in plasma or brain.
# The design of the experiment is shown in FIG. 16. #=Behavioral study and rotarod test; ϕ Administration of the compound; W=weeks of age of the mice; D=Day of the experiment.
# TNF-α = TNF-α in supernatant of LPS-stimulated RAW macrophages (ELISA); format: cell-based; details: 10 μM, 24 h
# Experimental: as §1, §2
# [2] = system: SH-SY5Y neuroblastoma cell line; test: Neuroprotection assay: SH-SY5Y viability after H2O2 damage (MTT); format: cell-based; details: 10 μM, H2O2 100 μM, 24 h, 1% DMSO
# Experimental: The SH-SY5Y neuroblastoma cell line was cultured in petri dishes pre-treated with collagen (100 ng/ml) with F12 medium supplemented with penicillin/streptomycin and 10% inactivated fetal bovine serum.
# Cell viability assays with neurons were prepared in 96-well plates pre-treated with collagen by seeding 20,000 cells/well in a volume of 100 μL and incubating the cells for 24 h before the addition of the compounds. The compounds to be tested were dissolved in DMSO and added in three different concentrations (1, 10, and 100 μM) in order to determine their toxicity. The final percentage of DMSO in each well was adjusted to 1%. The cell viability was evaluated 24 h after the addition of the compounds by means of the MTT assay according to the manufacturer's method. Mean values and standard deviations were calculated from at least eight different measurements from several independent experiments.
# For the neuroprotection assay, the neurons were cultured and seeded in the same manner as for the cell viability assay. […] The cell viability was evaluated 24 h after the addition of the compounds by means of the MTT assay according to the manufacturer's method. Mean values and standard deviations were calculated from at least eight different measurements from several independent experiments. […]
# [3] = system: mouse model of multiple sclerosis; test: Experimental allergic encephalomyelitis (EAE) mouse model of multiple sclerosis; format: in vivo; details: for motor capacity: preventive regimen, 20 mg/kg intraperitoneal twice a week for 3 weeks from day 5 after induction; for clinical classification of the motor capacity: 20 mg/kg intraperitoneal twice a week for 2 weeks from day 12 after induction, especially days 20-30
# Experimental: Compound 15 was investigated as a possible treatment in a mouse model of multiple sclerosis. The compound resveratrol (RES) was added as a reference. An experimental allergic encephalomyelitis model, EAE, was used as an animal model of multiple sclerosis.
# In this model, mice are injected with myelin oligodendrocyte glycoprotein (MOG, MOG35-55, is the 21 amino acid peptide corresponding to the sequence from positions 35 to 55 of the MOG glycoprotein) and virus pertussis (pertussis toxin, PTX) in order to induce the disease. Two days after induction, a new dose of the virus was given again, because some mice were not developing symptoms of EAE. Once the damage was caused, the mice were treated with RES, compound 15, or vehicle, and we studied the effect thereof on the mouse on the basis of different motor parameters on a scale from 0 normal to 4 incapable.
# • Vehicle without tween-80 emulsifier (control EAE without T) • Vehicle with tween-80 emulsifier (EAE-T control) • Preventive RES (without tween-80 emulsifier) (RES-PREV) • Therapeutic RES (no tween-80 emulsifier) (RES-TERAP) • Preventive compound 15 (with tween-80 emulsifier) (compound 15-PREV) • Therapeutic compound 15 (with tween-80 emulsifier) (compound 15-TERAP)
# (§3) The (intraperitoneal) administration of the compounds (resveratrol, compound 15, and vehicle, with or without tween-80) is started 5 days after induction. 250 μL of the compound in question (20 mg/kg) were injected twice a week and the treatment was maintained for 3 weeks. The treatment was then stopped, but the state of the mice was monitored for another 3 weeks (47 days total).
# as §3, with “started 12” for “started 5”, “for 2” for “for 3”
# zebrafish (Danio rerio) = test: PTZ-induced neurotoxicity model in zebrafish larvae, AChE activity; format: in vivo; details: 5 dpf larvae, 10 μM, 1 h pre-treatment then 6 h with 5 mM PTZ
# Experimental: The objective of this assay was to analyze the protective effect of various derivatives of resveratrol in a model of neurotoxicity induced by the neurotoxin pentylenetetrazole (PTZ). As an experimental model, the zebrafish (Danio rerio) was used to study the effect of the compounds on acetylcholinesterase activity (AChE) in larvae at 5 days post-fertilization (dpf).
# Zebrafish embryos were seeded in 50 ml of dilution water (AD) in a Petri dish and grown to 5 dpf (larval stage). […] Next, the larvae were transferred using a Pasteur pipette to a 24-well microplate, so that each well contained five larvae, making ten replicates per condition. First, the pre-treatment of the 5 dpf larvae was performed. For this, the larvae were incubated at 26±1° C. for 1 hour in a volume of 2 ml of AD for the two control groups (Control and Control+PTZ), of physostigmine (Phys) 20 μM, which is a commercial inhibitor of the enzyme AChE for the Phys group, and of the test compounds at a concentration of 10 μM. A medium exchange was then carried out, and the larvae were incubated with the compounds in combination with 5 mM PTZ for 6 hours at 26±1° C. After this incubation period, all of the larvae were examined, and it was determined that the general state of the larvae was totally normal, without any visible anomaly or anomalous behavior. Finally, the larvae were processed for the analysis of the AChE activity.
# In order to determine the AChE levels, larvae processing was carried out according to the established technical study protocol once the experimental period was completed. The larvae were homogenized mechanically, and the samples were centrifuged to obtain the supernatant, which were used to determine the levels of the AChE enzyme as a function of the treatments administered. In addition, the determination of total protein of each experimental group was carried out according to the established technical study protocol. Finally, the AChE levels determined in the control group were taken as a reference measurement and deemed to be 100%.
# NO = NO (nitrite, Griess reagent) in supernatant of LPS-stimulated RAW macrophages; format: cell-based; details: 10 μM, 24 h
# Experimental: as §1, §2
structure (smiles),measurement,setting,value
"Oc1ccc(C=Cc2cc(O)cc(O)c2)cc1 [RES, resveratrol]",cell viability recovered,RAW 264.7 macrophages,up to 62%
same,IL-6 level in culture medium,IL-6,significantly decreases
same,"improvement of the phenotype caused by 3NP, compared with compound 15",[1],differences between compound 15 and RES are not great
same,TNF-α level in culture medium,TNF-α,significantly decreases
same,cell viability recovered,[2],up to 50%
same,motor capacity,[3],does reduce damage on a motor level
same,clinical classification of the motor capacity,[3]; therapeutic regimen,do not appear to improve
same,AChE activity relative to control (neuroprotective effect),zebrafish (Danio rerio),lower neuroprotective effect
same,NO level in culture medium,NO,significantly decreases
CC[Si](CC)(CC)Oc1cc(/C=C/c2ccc(O)cc2)cc(O[Si](CC)(CC)CC)c1 [compound 9],AChE activity relative to control (neuroprotective effect),zebrafish (Danio rerio),significantly prevent the decrease in AChE activity induced by PTZ
"CCCC(=O)Oc1ccc(/C=C/c2cc(O[Si](CC)(CC)CC)cc(O[Si](CC)(CC)CC)c2)cc1 [compound 17, 3,5-O-triethylsilyl-4′-butanoyl resveratrol]",AChE activity relative to control (neuroprotective effect),zebrafish (Danio rerio),lower neuroprotective effect similar to that observed for resveratrol
"CCCCCCCC(=O)OCC1OC(Oc2cc(/C=C/c3ccc(O[Si](C(C)C)(C(C)C)C(C)C)cc3)cc(O[Si](C(C)C)(C(C)C)C(C)C)c2)C(O)C(O)C1O (stereo not drawn) [compound 14, 3,4′-O-ditriisopropylsilyl-5-(-6-octanoyl)glucosyl resveratrol]",AChE activity relative to control (neuroprotective effect),zebrafish (Danio rerio),lower neuroprotective effect similar to that observed for resveratrol
CC[Si](CC)(CC)Oc1ccc(/C=C/c2cc(O)cc(O[Si](CC)(CC)CC)c2)cc1 [compound 8],AChE activity relative to control (neuroprotective effect),zebrafish (Danio rerio),lower neuroprotective effect similar to that observed for resveratrol
"CCCCCCCC(=O)OCC1OC(Oc2ccc(/C=C/c3cc(O[Si](C(C)C)(C(C)C)C(C)C)cc(O[Si](C(C)C)(C(C)C)C(C)C)c3)cc2)C(O)C(O)C1O (stereo not drawn) [compound 15, 3,5-O-ditriisopropylsilyl-4′-(6-octanoyl)glucosyl resveratrol]",severity of the motor lesions (motor capacity),[1],decreasing the severity of the motor lesions
same,weight of the animals,[1],increasing the weight of the animals
same,levels of pro-inflammatory cytokines such as IL-6,[1]; plasma,decreasing
same,effectiveness relative to RES on a molar dose basis,"[3]; 20 mg/kg each, dose of RES in μmol/kg about 3× dose of compound 15",much more effective
same,motor capacity,[3],does not have a great effect on motor capacity
same,clinical classification of the motor capacity,[3]; therapeutic regimen,improves the clinical classification of the motor capacity of the mice compared to the control
same,clinical classification of the motor capacity after end of administration,"[3]; therapeutic regimen, days 30-47, administration interrupted",improvement in the clinical classification was maintained
same,AChE activity relative to control (neuroprotective effect),zebrafish (Danio rerio),significantly prevent the decrease in AChE activity induced by PTZ
